Drawing on US7772180B2, “Hepatitis C virus inhibitors” (Bristol-Myers Squibb Company, priority 2006, dated 2010), this text covers IC50 for one molecule.

Assay type in all cases: biochemical
Assay [1] addresses T1, HCV NS3/4A protease complex, J4L6S strain (Hepatitis C virus genotype 1b, UniProt O92972, C1454S/C1711G).
T1 construct: DNA encoding the recombinant HCV NS3/4A protease complex (amino acids 1027 to 1711) for these strains; made in house; host or cells: Escherichia coli BL21 (DE3), pET21b
The assay is described as follows: FRET peptide assay to monitor HCV NS3/4A proteolytic activity (J4L6S strain). The following applies: read-out: IC50 against the NS3/4A J4L6S strain. From the text: (§1) HCV NS3 protease complexes, derived from the BMS strain, H77 strain or J4L6S strain, were generated, as described below. These purified recombinant proteins were generated for use in a homogeneous assay (see below) to provide an indication of how effective compounds of the present disclosure would be in inhibiting HCV NS3 proteolytic activity.
(§2) Serum from an HCV-infected patient was obtained from Dr. T. Wright, San Francisco Hospital. An engineered full-length cDNA (compliment deoxyribonucleic acid) template of the HCV genome (BMS strain) was constructed from DNA fragments obtained by reverse transcription-PCR (RT-PCR) of serum RNA (ribonucleic acid) and using primers selected on the basis of homology between other genotype 1a strains. From the determination of the entire genome sequence, a genotype 1a was assigned to the HCV isolate according to the classification of Simmonds et al. (See P Simmonds, K A Rose, S Graham, S W Chan, F McOmish, B C Dow, E A Follett, P L Yap and H Marsden, J. Clin. Microbiol., 31(6), 1493-1503 (1993)). […]

The target of assay [2] is T2, porcine pancreatic elastase (PPE) (Sus scrofa, UniProt P00772).
T2 construct: purchased Sigma, EMDbiosciences
The assay is described as follows: Specificity assay, porcine pancreatic elastase. The following applies: read-out: PPE activity in the specificity assays (IC50). How it is done:
The specificities of compounds of the present disclosure were determined against a variety of serine proteases: human neutrophil elastase (HNE), porcine pancreatic elastase (PPE) and human pancreatic chymotrypsin and one cysteine protease: human liver cathepsin B. In all cases a 96-well plate format protocol using either colorimetric p-nitroaniline (pNA) substrate or fluorometric Amino-Methyl-Coumarin (AMC) specific for each enzyme was used as described previously (PCT Patent Application No. WO 00/09543) with some modifications to the serine protease assays. All enzymes were purchased from Sigma, EMDbiosciences while the substrates were from Bachem, Sigma and EMDbiosciences.
The pNA assay for Chymotrypsin included a 1 h enzyme-inhibitor pre-incubation at room temperature followed by addition of substrate and hydrolysis to ˜15% conversion as measured on a Spectramax Pro microplate reader. Compound concentrations varied from 100 to 0.4 μM depending on their potency. Cathepsin B, HNE, and PPE assays each was initiated by addition of substrate to enzyme-inhibitor pre-incubated for 10 min at room temperature and hydrolysis to 15% conversion as measured on cytofluor.
50 mM Tris-HCl, pH 8.0, 50 mM NaCl, 0.1 mM EDTA, 3% DMSO, 0.02% Tween-20, 5 μM succ-AAPV-AMC and 20 nM HNE or 8 nM PPE;
The percentage of inhibition was calculated using the formula: [1−((UVinh−UVblank)/(UVctl−UVblank))]×100 […]

In assay [3] the target is T3, HCV NS3/4A protease complex, H77 strain (Hepatitis C virus genotype 1a, UniProt P27958, C1454S/C1711G).
T3 construct: DNA encoding the recombinant HCV NS3/4A protease complex (amino acids 1027 to 1711) for these strains; made in house; host or cells: Escherichia coli BL21 (DE3), pET21b
Kind of assay: FRET peptide assay to monitor HCV NS3/4A proteolytic activity (H77 strain). Particulars: read-out: IC50 against the NS3/4A H77 strain.
Description: as §1, §2

T3 sequence (P27958 1027-1711 C1454S/C1711G, one chain of several): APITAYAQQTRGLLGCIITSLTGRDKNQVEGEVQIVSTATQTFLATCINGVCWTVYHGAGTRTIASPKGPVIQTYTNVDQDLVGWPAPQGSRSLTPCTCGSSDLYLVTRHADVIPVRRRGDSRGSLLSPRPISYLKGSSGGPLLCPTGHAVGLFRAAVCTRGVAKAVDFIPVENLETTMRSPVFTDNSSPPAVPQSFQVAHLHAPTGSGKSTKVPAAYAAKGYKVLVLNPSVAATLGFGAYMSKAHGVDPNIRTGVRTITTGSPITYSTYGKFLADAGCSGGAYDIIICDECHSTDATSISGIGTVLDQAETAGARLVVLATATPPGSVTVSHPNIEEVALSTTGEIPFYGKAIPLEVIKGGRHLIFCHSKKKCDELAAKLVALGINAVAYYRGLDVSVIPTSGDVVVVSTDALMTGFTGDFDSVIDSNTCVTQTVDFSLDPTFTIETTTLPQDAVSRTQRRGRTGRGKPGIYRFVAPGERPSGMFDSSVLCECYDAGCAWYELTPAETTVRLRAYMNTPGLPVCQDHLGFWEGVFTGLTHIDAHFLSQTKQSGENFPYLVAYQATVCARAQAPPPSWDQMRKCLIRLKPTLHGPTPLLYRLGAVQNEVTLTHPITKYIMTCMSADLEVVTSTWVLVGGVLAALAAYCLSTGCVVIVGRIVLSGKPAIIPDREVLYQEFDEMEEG
T2 sequence (P00772 27-266): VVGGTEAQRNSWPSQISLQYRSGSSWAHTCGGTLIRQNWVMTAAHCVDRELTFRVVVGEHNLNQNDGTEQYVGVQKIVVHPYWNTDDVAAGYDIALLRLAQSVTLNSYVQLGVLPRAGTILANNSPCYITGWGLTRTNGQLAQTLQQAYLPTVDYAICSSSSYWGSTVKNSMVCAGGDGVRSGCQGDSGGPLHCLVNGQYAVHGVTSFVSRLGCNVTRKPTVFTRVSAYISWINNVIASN
T1 sequence (O92972 1027-1711 C1454S/C1711G, one chain of several): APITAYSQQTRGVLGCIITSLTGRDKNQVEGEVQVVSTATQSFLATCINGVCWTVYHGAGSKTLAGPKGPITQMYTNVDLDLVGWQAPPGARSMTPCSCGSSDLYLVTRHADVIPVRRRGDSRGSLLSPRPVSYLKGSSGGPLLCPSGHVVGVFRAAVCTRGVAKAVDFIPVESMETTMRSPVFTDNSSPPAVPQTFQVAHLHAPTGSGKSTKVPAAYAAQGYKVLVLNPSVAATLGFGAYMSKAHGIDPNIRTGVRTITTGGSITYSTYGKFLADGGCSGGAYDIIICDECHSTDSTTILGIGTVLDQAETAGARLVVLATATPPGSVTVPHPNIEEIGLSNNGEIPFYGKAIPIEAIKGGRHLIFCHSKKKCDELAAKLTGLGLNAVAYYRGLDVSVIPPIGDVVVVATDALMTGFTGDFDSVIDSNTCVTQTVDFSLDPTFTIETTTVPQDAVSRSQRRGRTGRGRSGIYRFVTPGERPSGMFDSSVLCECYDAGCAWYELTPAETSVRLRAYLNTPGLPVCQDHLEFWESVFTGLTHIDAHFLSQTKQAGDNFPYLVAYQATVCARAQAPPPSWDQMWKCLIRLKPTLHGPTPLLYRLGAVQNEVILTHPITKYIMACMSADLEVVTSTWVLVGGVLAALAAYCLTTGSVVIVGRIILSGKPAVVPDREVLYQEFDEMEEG

On to `C=C[C@@H]1C[C@]1(NC(=O)[C@@H]1C[C@@H](Oc2nc(N(C)C)cc3cc(OC)ccc23)CN1C(=O)C(Nc1cc(C)cc(C)n1)C(C)(C)C)C(=O)NS(=O)(=O)C1CC1` (single isomer, unassigned) [Compound 18], for which the IC50 in assay [1] is 0.9 nM; in assay [2], above 1560 nM; in assay [3], 1.2 nM.
